# Legend:
# [1] = tested on: symptoms of primary osteoarthritis (OA) of the knee; experiment: 12-week randomized, double-blind, double-dummy, parallel-group comparative study; WOMAC osteoarthritis index (VAS) efficacy; format: in vivo, patients (men and nonpregnant women)
# Protocol: (§1) The purpose of this study was to compare the safety and efficacy of a topical cream (CellMedics®) containing 0.075% w/w capsaicin and 5% w/w Harpagophytum extract vs. oral diclofenac 50 mg tablets over a 12-week treatment course in relieving the symptoms of primary osteoarthritis (OA) of the knee, in a randomized, double-blind, double-dummy, parallel-group study. Eligible patients included men and nonpregnant women between the ages of 45-75 with symptomatic OA of the knee of at least three months duration. All patients had knee OA as defined by the American College of Rheumatology global functional class I, II, or III. […] Concomitant use of other analgesic medications was prohibited during the study. The protocol was a 12-week, randomized, double-blind, double-dummy, parallel-group comparative study. Patients were assessed at the initial screening visit and those who met the entry criteria discontinued NSAID treatment for a washout period of 3-10 days before the baseline visit. Following the screening and washout periods, each eligible patient attending the baseline visit was assigned a numbered study kit at the clinic. Study kits contained one of 2 randomly assigned treatments: (1) vehicle cream (CellMedics®) containing 0.075% w/w capsaicin and 5% w/w Harpagophytum extract (topical Harpagophytum) plus oral placebo tablet; or (2) diclofenac 50 mg tablet (oral diclofenac) plus a topical placebo cream (vehicle cream with no actives). Patients were instructed to apply a single 3 g measured dose of cream (150 mg of Harpagophytum and 2.25 mg of capsaicin in the active cream) from a metered pump dispenser around the affected knee and take a study tablet orally, 3 times daily for 12 weeks. […] The WOMAC osteoarthritis index, version 3.1 visual analog scale (VAS) was used to assess response to treatment at baseline and after week 12. Patients answered the WOMAC subscales of pain, stiffness, and physical function using a 48 hour recall period. For WOMAC, the VA scales were (best) 0-100 (worst). Safety analyses were conducted on all patients randomized into the trial. At week 12 visits, adverse events (AE) were recorded. The differences between baseline and week 12 were used to analyze changes in WOMAC scores. Statistical significance was assumed at p<0.05. The effect size was calculated by dividing the mean change from baseline with the standard deviation at baseline. Percent improvement was calculated by dividing week 12 change scores by baseline scores.
# [2] = tested on: patients with primary osteoarthritis (OA) of the knee; experiment: Same 12-week study; safety analysis, incidence of drug-related adverse events
# Protocol: as §1
# [3] = mean change from baseline divided by the standard deviation at baseline, week 12
# [4] = mean, WOMAC VA scale (best) 0-100 (worst), 12 weeks, 3 times daily, n = 36
# [5] = week 12 change score divided by baseline score
# [6] = both, human, in vivo, po, 12 weeks
smiles,measurement,setting,value
"O=C(O)Cc1ccccc1Nc1c(Cl)cccc1Cl [Oral Diclofenac, diclofenac]","WOMAC Pain, Effect size",[1]; [3],1.04
same,"WOMAC Physical Function, Effect size",[1]; [3],0.99
same,"WOMAC Stiffness, Effect size",[1]; [3],0.90
same,"WOMAC Pain, Baseline - week 12 change score",[1]; [4],−22.87
same,"WOMAC Physical Function, Baseline - week 12 change score",[1]; [4],−21.87
same,"WOMAC Stiffness, Baseline - week 12 change score",[1]; [4],−21.65
same,"WOMAC Pain, % Improvement",[1]; [5],48.77%
same,"WOMAC Physical function, % Improvement",[1]; [5],45.91%
same,"WOMAC Stiffness, % Improvement",[1]; [5],44.86%
same,"Erythema (application site adverse event), number of patients","[2]; 12 weeks, n = 36, oral diclofenac group used placebo cream",One
same,severity of dry skin at application site,[2]; all cases,mild and transient
same,"Abdominal pain (GI adverse event), number of patients","[2]; both, human, in vivo, 12 weeks",8
same,"Constipation (GI adverse event), incidence","[2]; both, human, in vivo, 12 weeks",(8.3%)
same,"Constipation (GI adverse event), number of patients","[2]; both, human, in vivo, 12 weeks",3
same,"Diarrhea (GI adverse event), incidence","[2]; both, human, in vivo, 12 weeks",(16.7%)
same,"Diarrhea (GI adverse event), number of patients","[2]; both, human, in vivo, 12 weeks",6
same,"Dyspepsia (GI adverse event), incidence","[2]; both, human, in vivo, 12 weeks",(25.0%)
same,"Dyspepsia (GI adverse event), number of patients","[2]; both, human, in vivo, 12 weeks",9
same,"Edema (other adverse event), number of patients","[2]; both, human, in vivo, 12 weeks",3
same,"Flatulence (GI adverse event), incidence","[2]; both, human, in vivo, 12 weeks",(16.7%)
same,"Flatulence (GI adverse event), number of patients","[2]; both, human, in vivo, 12 weeks",6
same,"Headache (other adverse event), number of patients","[2]; both, human, in vivo, 12 weeks",2
same,"Nausea (GI adverse event), incidence","[2]; both, human, in vivo, 12 weeks",(11.1%)
same,"Nausea (GI adverse event), number of patients","[2]; both, human, in vivo, 12 weeks",4
same,time to resolution of mild redness (erythema),"[2]; both, human, in vivo, 12 weeks",≤ 24 h
same,"Blisters (application site adverse event), incidence",[2]; [6],(0.0%)
same,"Blisters (application site adverse event), number of patients",[2]; [6],0
same,"Dry Skin (application site adverse event), number of patients",[2]; [6],1
same,"Erythema (application site adverse event), number of patients",[2]; [6],1
same,"Pruritis (application site adverse event), incidence",[2]; [6],(0.0%)
same,"Pruritis (application site adverse event), number of patients",[2]; [6],0

# Reference: US10806790B1, “Pain therapy cream with deep tissue delivery system” (priority 2013, dated 2020)
